Values of other authors in US11173217B2, “Methods and compositions for near infrared fluorescent nanodots with aggregation-induced emission characteristics” (priority 2016, dated 2021).

Settings: in DMSO; cited from earlier work

CC1(C)C(/C=C/C=C/C=C/C=C2\N(CCCCS(=O)(=O)[O-])c3ccc4ccccc4c3C2(C)C)=[N+](CCCCS(=O)(=O)[O-])c2ccc3ccccc3c21.[Na+] [IR-125]
quantum yield of reference: 13%
